Assay results published in ChEMBL document CHEMBL1155538 (Bioorg Med Chem Lett, 2010).

Assays:
[1] = biological target: Voltage-gated inwardly rectifying potassium channel KCNH2 (Homo sapiens, UniProt Q12809); experiment: Displacement of [3H]dofetilide from human ERG
[2] = biological target: Sodium-dependent serotonin transporter (Homo sapiens, UniProt P31645); experiment: biochemical
[3] = biological target: Sodium-dependent noradrenaline transporter (Homo sapiens, UniProt P23975); experiment: biochemical
[4] = biological target: Sodium-dependent dopamine transporter (Homo sapiens, UniProt Q01959); experiment: biochemical
[5] = Half life in human liver microsomes; format: ADME, Microsome
[6] = Inhibition of tetrodotoxin-sensitive sodium channel

Chain of Sodium-dependent noradrenaline transporter (P23975 whole entry): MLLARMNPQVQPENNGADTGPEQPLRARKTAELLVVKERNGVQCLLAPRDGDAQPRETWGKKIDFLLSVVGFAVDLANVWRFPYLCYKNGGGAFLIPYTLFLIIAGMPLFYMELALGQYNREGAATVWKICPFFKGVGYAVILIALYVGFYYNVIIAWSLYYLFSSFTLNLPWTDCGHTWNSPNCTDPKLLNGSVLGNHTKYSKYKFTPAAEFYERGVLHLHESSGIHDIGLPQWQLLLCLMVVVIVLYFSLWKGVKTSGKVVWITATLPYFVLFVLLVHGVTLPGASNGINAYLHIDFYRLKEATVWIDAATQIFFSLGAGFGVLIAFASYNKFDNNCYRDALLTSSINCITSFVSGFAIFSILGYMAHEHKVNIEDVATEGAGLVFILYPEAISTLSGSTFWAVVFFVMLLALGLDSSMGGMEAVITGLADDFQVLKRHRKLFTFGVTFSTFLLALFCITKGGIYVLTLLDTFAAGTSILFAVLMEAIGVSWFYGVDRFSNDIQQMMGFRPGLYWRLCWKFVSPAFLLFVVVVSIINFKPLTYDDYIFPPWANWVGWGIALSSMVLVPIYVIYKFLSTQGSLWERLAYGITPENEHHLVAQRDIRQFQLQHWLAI
Chain of Sodium-dependent serotonin transporter (P31645 whole entry): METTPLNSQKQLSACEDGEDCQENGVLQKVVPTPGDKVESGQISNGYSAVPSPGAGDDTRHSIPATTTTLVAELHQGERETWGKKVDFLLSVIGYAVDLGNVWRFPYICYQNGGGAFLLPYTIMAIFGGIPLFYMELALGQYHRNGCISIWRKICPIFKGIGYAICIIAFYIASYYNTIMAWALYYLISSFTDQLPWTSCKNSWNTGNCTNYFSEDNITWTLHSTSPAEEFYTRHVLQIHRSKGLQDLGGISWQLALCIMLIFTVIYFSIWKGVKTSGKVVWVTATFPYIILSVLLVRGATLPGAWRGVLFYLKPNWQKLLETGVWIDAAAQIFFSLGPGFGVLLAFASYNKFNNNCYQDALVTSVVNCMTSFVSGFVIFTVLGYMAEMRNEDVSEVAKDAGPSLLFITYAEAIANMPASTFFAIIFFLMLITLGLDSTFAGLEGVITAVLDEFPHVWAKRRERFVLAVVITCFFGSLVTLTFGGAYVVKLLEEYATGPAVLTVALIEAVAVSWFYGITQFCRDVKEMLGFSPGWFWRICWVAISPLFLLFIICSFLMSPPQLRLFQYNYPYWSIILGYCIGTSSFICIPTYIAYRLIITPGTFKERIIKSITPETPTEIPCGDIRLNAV
Chain of Voltage-gated inwardly rectifying potassium channel KCNH2 (Q12809 whole entry): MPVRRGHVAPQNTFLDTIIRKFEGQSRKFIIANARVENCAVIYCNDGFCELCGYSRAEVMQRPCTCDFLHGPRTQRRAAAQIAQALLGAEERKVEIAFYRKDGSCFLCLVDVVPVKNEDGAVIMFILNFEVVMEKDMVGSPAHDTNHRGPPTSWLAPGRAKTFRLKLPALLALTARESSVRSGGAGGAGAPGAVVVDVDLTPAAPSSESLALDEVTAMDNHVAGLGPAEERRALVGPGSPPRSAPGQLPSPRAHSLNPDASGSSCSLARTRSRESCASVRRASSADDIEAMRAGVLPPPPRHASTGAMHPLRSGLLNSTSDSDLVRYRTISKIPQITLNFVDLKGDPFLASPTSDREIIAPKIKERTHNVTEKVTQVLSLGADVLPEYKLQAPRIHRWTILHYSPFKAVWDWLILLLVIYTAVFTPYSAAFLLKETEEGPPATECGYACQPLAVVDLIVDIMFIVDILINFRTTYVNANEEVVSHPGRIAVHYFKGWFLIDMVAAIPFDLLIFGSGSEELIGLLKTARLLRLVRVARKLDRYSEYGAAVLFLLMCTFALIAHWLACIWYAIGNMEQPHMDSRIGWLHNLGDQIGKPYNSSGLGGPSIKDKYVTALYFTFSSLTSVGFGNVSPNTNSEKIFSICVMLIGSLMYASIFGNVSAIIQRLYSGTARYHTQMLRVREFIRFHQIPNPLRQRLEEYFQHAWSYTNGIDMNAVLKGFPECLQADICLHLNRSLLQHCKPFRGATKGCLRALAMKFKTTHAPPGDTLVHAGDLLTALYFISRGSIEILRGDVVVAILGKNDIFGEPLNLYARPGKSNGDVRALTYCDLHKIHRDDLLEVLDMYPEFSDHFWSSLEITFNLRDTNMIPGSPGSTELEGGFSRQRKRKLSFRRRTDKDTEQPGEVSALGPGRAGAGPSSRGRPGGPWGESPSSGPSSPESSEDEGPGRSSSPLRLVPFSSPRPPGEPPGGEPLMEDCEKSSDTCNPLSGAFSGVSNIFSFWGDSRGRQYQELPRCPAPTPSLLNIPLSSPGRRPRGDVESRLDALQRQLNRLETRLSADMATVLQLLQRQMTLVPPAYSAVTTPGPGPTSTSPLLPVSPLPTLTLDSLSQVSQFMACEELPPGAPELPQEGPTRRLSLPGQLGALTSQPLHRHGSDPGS
Chain of Sodium-dependent dopamine transporter (Q01959 whole entry): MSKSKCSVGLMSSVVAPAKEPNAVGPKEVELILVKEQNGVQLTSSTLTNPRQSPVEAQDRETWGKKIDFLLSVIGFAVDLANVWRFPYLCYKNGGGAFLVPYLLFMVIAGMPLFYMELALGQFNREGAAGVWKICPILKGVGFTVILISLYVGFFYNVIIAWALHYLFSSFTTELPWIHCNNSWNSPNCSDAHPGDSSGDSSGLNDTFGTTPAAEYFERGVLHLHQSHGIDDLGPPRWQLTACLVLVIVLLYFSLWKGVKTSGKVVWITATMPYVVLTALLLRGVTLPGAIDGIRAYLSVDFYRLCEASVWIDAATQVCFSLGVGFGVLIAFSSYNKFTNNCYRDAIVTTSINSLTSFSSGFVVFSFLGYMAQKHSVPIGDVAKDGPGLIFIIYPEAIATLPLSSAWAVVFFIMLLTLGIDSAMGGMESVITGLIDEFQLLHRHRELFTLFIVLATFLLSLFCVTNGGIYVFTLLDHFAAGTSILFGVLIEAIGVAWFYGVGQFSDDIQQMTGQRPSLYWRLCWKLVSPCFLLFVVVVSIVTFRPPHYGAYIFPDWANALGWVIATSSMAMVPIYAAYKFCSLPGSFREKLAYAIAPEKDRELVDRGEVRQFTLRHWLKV

SMILES	IC50 [1]	Ki [2]	Ki [3]	Ki [4]	half-life [5]	IC50 [6]
c1ccc(C(Cc2cccc3c2OCC3)N2CCNCC2)cc1 (stereo unspecified)	21.4 µM	0.008 µM	0.34 µM	> 3.16 µM		
CC(C)CN(C(=O)c1cccc(Cl)c1Cl)[C@H]1CCNC1					> 2 h	8.55 µM
